Measurements published in US10758534B2 (Vertex Pharmaceuticals Incorporated, priority 2014, dated 2020).

These compounds were tested against T1, F508del (Homo sapiens, UniProt P13569, DEL508-508) (assay: Protocol 1: membrane potential optical assay (FLIPR III, voltage sensing dye), identification of potentiator compounds). Conditions: Table 3, compounds of Table 1.
T1 construct: expressed in transfected cells
Format: cell-based
Method in brief: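 Gating potentiation is read as a membrane-potential fluorescence change (FLIPR III, voltage-sensing dye) after one forskolin addition under a Cl− gradient, with gluconate replacing chloride, pH 7.4. Cells are F508del-expressing NIH3T3 mouse fibroblasts held 24 h at 27 °C and exposed to compound before dye loading.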

T1 sequence (P13569 with tags, fused parts or gaps DEL508-508): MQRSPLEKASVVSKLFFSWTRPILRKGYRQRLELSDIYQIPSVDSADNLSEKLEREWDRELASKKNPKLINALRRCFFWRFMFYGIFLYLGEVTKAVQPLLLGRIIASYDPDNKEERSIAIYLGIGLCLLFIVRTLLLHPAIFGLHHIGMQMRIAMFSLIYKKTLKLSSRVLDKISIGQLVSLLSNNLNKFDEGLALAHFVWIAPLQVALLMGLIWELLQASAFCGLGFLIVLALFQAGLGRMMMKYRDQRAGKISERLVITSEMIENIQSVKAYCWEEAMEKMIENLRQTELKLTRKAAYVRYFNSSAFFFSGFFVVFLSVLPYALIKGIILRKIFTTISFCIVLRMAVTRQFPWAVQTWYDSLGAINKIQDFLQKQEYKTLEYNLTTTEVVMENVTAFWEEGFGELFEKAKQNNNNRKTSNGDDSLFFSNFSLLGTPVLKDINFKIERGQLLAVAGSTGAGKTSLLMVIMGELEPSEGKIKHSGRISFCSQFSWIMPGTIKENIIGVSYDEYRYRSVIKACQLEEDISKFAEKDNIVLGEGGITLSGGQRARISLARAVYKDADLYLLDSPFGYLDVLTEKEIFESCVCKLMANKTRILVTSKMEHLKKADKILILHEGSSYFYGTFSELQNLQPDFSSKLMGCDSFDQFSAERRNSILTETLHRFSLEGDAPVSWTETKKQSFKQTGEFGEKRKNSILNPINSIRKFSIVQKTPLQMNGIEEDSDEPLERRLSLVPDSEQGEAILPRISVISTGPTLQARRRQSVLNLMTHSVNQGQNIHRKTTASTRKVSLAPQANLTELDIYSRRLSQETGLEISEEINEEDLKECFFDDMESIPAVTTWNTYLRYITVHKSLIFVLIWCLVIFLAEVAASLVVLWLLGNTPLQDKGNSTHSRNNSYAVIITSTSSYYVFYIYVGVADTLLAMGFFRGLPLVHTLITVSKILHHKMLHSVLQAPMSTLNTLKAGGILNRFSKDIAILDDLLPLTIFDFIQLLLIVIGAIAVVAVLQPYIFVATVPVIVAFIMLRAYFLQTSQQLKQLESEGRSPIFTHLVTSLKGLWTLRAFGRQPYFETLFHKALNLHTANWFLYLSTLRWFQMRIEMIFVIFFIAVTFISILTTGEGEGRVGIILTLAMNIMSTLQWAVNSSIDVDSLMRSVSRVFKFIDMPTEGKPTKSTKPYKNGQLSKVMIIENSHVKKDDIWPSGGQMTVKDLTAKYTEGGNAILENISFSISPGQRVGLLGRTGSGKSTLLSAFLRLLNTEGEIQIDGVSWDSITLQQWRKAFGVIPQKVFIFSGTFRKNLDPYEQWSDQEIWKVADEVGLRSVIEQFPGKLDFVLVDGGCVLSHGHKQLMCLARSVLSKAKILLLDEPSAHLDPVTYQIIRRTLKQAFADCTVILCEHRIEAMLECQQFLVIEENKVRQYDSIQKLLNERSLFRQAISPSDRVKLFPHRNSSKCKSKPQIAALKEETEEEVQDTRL

EC30 | Compound
+++ (“+++” means <3 uM) | COc1ccc(C)cc1-c1ccc(C(=O)NS(=O)(=O)c2cccc(N)n2)c(Oc2c(C)cc(C)cc2C)n1 [Compound 1320, N-[(6-amino-2-pyridyl)sulfonyl]-6-(2-methoxy-5-methyl-phenyl)-2-(2,4,6-trimethylphenoxy)pyridine-3-carboxamide]
++ (“++” means between 3 uM and 10 uM) | Cc1cc(C)c(Oc2ncc(-c3ccccc3)cc2C(=O)NS(=O)(=O)c2cccc(N)c2)c(C)c1 [Compound 1321, N-(3-aminophenyl)sulfonyl-5-phenyl-2-(2,4,6-trimethylphenoxy)pyridine-3-carboxamide]
++ (“++” means between 3 uM and 10 uM) | CC(C)Oc1ccc(-c2ccc(C(=O)NS(=O)(=O)c3cccc(N)n3)c(N3CC[C@@H](C)C3)n2)cn1 [Compound 1322, N-[(6-amino-2-pyridyl)sulfonyl]-6-(6-isopropoxy-3-pyridyl)-2-[(3R)-3-methylpyrrolidin-1-yl]pyridine-3-carboxamide]
+++ (“+++” means <3 uM) | Cc1cc(C)c(Oc2nc(-c3cc(F)cc(F)c3)ccc2C(=O)NS(=O)(=O)c2cccc(N)n2)c(C)c1 [Compound 1325, N-[(6-amino-2-pyridyl)sulfonyl]-6-(3,5-difluorophenyl)-2-(2,4,6-trimethylphenoxy)pyridine-3-carboxamide]
++ (“++” means between 3 uM and 10 uM) | COc1cccc(OC)c1-c1ccc(C(=O)NS(=O)(=O)c2cccc(N)n2)c(Oc2c(C)cc(C)cc2C)n1 [Compound 1326, N-[(6-amino-2-pyridyl)sulfonyl]-6-(2,6-dimethoxyphenyl)-2-(2,4,6-trimethylphenoxy)pyridine-3-carboxamide]
+++ (“+++” means <3 uM) | CC(C)Oc1ccc(-c2ccc(C(=O)NS(=O)(=O)c3cccc(N)n3)c(N3CCC(C)(C)C3C)n2)cn1 (centres unmarked) [Compound 1327, N-[(6-amino-2-pyridyl)sulfonyl]-6-(6-isopropoxy-3-pyridyl)-2-(2,3,3-trimethylpyrrolidin-1-yl)pyridine-3-carboxamide]
++ (“++” means between 3 uM and 10 uM) | Cc1cc(C)c(Oc2nc(C3CCC(F)(F)CC3)ccc2C(=O)NS(=O)(=O)c2ccc[nH]c2=O)c(C)c1 [Compound 1329, 6-(4,4-difluorocyclohexyl)-N-[(2-oxo-1H-pyridin-3-yl)sulfonyl]-2-(2,4,6-trimethylphenoxy)pyridine-3-carboxamide]
+++ (“+++” means <3 uM) | Cc1cc(C)c(Oc2nc(C3=CCCC3)ccc2C(=O)NS(=O)(=O)c2cccc(N)n2)c(C)c1 [Compound 1330, N-[(6-amino-2-pyridyl)sulfonyl]-6-(cyclopenten-1-yl)-2-(2,4,6-trimethylphenoxy)pyridine-3-carboxamide]
+++ (“+++” means <3 uM) | COc1ncc(-c2ccc(C(=O)NS(=O)(=O)c3cccc(N)n3)c(Oc3c(C)cc(C)cc3C)n2)cc1Cl [Compound 1332, N-[(6-amino-2-pyridyl)sulfonyl]-6-(5-chloro-6-methoxy-3-pyridyl)-2-(2,4,6-trimethylphenoxy)pyridine-3-carboxamide]
+++ (“+++” means <3 uM) | CC1CN(c2nc(-c3ccccc3)ccc2C(=O)NS(=O)(=O)c2cccc(N)n2)C(C)(C)C1 (centres unmarked) [Compound 1334, N-[(6-amino-2-pyridyl)sulfonyl]-6-phenyl-2-(2,2,4-trimethylpyrrolidin-1-yl)pyridine-3-carboxamide]
+++ (“+++” means <3 uM) | Cc1cc(C)c(Oc2nc(-c3cnn(CCC(C)C)c3)ccc2C(=O)NS(=O)(=O)c2cccc(N)n2)c(C)c1 [Compound 1336, N-[(6-amino-2-pyridyl)sulfonyl]-6-(1-isopentylpyrazol-4-yl)-2-(2,4,6-trimethylphenoxy)pyridine-3-carboxamide]
+++ (“+++” means <3 uM) | CCOc1ccc(-c2ccc(C(=O)NS(=O)(=O)c3cccc(N)n3)c(Oc3c(C)cc(C)cc3C)n2)cc1 [Compound 1337, N-[(6-amino-2-pyridyl)sulfonyl]-6-(4-ethoxyphenyl)-2-(2,4,6-trimethylphenoxy)pyridine-3-carboxamide]
++ (“++” means between 3 uM and 10 uM) | Cc1cc(C)c(CN2Cc3c(O)cccc3C2(C)C(=O)NS(=O)(=O)c2cccc(N)n2)c(C)c1 (centres unmarked) [Compound 1338, N-[(6-amino-2-pyridyl)sulfonyl]-4-hydroxy-1-methyl-2-[(2,4,6-trimethylphenyl)methyl]isoindoline-1-carboxamide]
+++ (“+++” means <3 uM) | CC(C)c1ccc(-c2ccc(C(=O)NS(=O)(=O)c3cccc(N)n3)c(N3[C@H](C)CC[C@@H]3C)n2)cc1 [Compound 1343, N-[(6-amino-2-pyridyl)sulfonyl]-2-[(2S,5R)-2,5-dimethylpyrrolidin-1-yl]-6-(4-isopropylphenyl)pyridine-3-carboxamide]
++ (“++” means between 3 uM and 10 uM) | Cc1cc(C)c(Oc2nc(-c3ccc(O)cc3)ccc2C(=O)NS(=O)(=O)c2cccc(N)n2)c(C)c1 [Compound 1344, N-[(6-amino-2-pyridyl)sulfo]-6-(4-hydroxyphenyl)-2-(2,4,6-trimethylphenoxy)pyridine-3-carboxamide]
+++ (“+++” means <3 uM) | CCOc1cccc2c1CN(Cc1c(C)cc(C)cc1C)C2(C)C(=O)NS(=O)(=O)c1cccc(N)n1 (centres unmarked) [Compound 1346, N-[(6-amino-2-pyridyl)sulfonyl]-4-ethoxy-1-methyl-2-[(2,4,6-trimethylphenyl)methyl]isoindoline-1-carboxamide]

Further lines, the compound ahead of its results:

Compound | EC30
CC(C)COc1cc(F)cc(-c2ccc(C(=O)NS(=O)(=O)c3cccc(N)n3)c(N3CCC(c4ccccc4)C3C)n2)c1 (centres unmarked) [Compound 1319, N-[(6-amino-2-pyridyl)sulfonyl]-6-(3-fluoro-5-isobutoxy-phenyl)-2-(2-methyl-3-phenyl-pyrrolidin-1-yl)pyridine-3-carboxamide] | +++ (“+++” means <3 uM)
CC(C)COc1cc(F)cc(-c2ccc(C(=O)NS(=O)(=O)c3cccc4[nH]ccc34)c(N3CCC(C)(C)CC3)n2)c1 [Compound 1323, 2-(4,4-dimethyl-1-piperidyl)-6-(3-fluoro-5-isobutoxy-phenyl)-N-(1H-indol-4-ylsulfonyl)pyridine-3-carboxamide] | + (“+” means greater than 10 uM)
CC(C)COc1cc(F)cc(-c2ccc(C(=O)NS(=O)(=O)c3cccc(N)n3)c(OC3CCOCC3)n2)c1 [Compound 1324, N-[(6-amino-2-pyridyl)sulfonyl]-6-(3-fluoro-5-isobutoxy-phenyl)-2-tetrahydropyran-4-yloxy-pyridine-3-carboxamide] | +++ (“+++” means <3 uM)
CC(C)(C)COc1cccc(-c2ccc(C(=O)NS(=O)(=O)c3cccc(N)n3)c(N3CCCC3(C)C)n2)n1 [Compound 1328, N-[(6-amino-2-pyridyl)sulfonyl]-6-[6-(2,2-dimethylpropoxy)-2-pyridyl]-2-(2,2-dimethylpyrrolidin-1-yl)pyridine-3-carboxamide] | +++ (“+++” means <3 uM)
Cc1ccc(-c2nc(C(C)(C)C)ccc2C(=O)NS(=O)(=O)c2cccc(N)c2)c(F)c1 [Compound 1331, N-(3-aminophenyl)sulfonyl-6-tert-butyl-2-(2-fluoro-4-methyl-phenyl)pyridine-3-carboxamide] | + (“+” means greater than 10 uM)
CC(C)COc1cc(F)cc(-c2ccc(C(=O)NS(=O)(=O)c3cccc(N)n3)c(N3CCCC34CC4)n2)c1 [Compound 1333, N-[(6-amino-2-pyridyl)sulfonyl]-2-(7-azaspiro[2.4]heptan-7-yl)-6-(3-fluoro-5-isobutoxy-phenyl)pyridine-3-carboxamide] | +++ (“+++” means <3 uM)
CC(C)COc1ccc(-c2ccc(C(=O)NS(=O)(=O)c3ccn[nH]3)c(N3[C@H](C)CC[C@@H]3C)n2)cc1 [Compound 1335, 2-[(2S,5R)-2,5-dimethylpyrrolidin-1-yl]-6-(4-isobutoxyphenyl)-N-(1H-pyrazol-5-ylsulfonyl)pyridine-3-carboxamide] | +++ (“+++” means <3 uM)
CC(C)Oc1ccc(-c2ccc(C(=O)NS(=O)(=O)c3cccc(N)n3)c(N3CCCC(c4cccc(Cl)c4)C3)n2)cn1 (centres unmarked) [Compound 1339, N-[(6-amino-2-pyridyl)sulfonyl]-2-[3-(3-chlorophenyl)-1-piperidyl]-6-(6-isopropoxy-3-pyridyl)pyridine-3-carboxamide] | +++ (“+++” means <3 uM)
CC(C)COc1cc(F)cc(-c2ccc(C(=O)NS(=O)(=O)c3cccc(CO)n3)c(N3CCC(C)CC3)n2)c1 [Compound 1340, 6-(3-fluoro-5-isobutoxy-phenyl)-N-[[6-(hydroxymethyl)-2-pyridyl]sulfonyl]-2-(4-methyl-1-piperidyl)pyridine-3-carboxamide] | +++ (“+++” means <3 uM)
CCC1(C)CCCN(c2nc(-c3ccc(OC(C)C)nc3)ccc2C(=O)NS(=O)(=O)c2cccc(N)n2)C1 (centres unmarked) [Compound 1341, N-[(6-amino-2-pyridyl)sulfonyl]-2-(3-ethyl-3-methyl-1-piperidyl)-6-(6-isopropoxy-3-pyridyl)pyridine-3-carboxamide] | +++ (“+++” means <3 uM)
COc1ncccc1S(=O)(=O)NC(=O)C1CCc2ccccc2CN1Cc1c(C)cc(C)cc1C (centres unmarked) [Compound 1342, N-[(2-methoxy-3-pyridyl)sulfonyl]-2-[(2,4,6-trimethylphenyl)methyl]-1,3,4,5-tetrahydro-2-benzazepine-3-carboxamide] | +++ (“+++” means <3 uM)
CCN(CC)c1cccc(-c2ccc(C(=O)NS(=O)(=O)c3cccc(N)n3)c(N3CC(C)CC3(C)C)n2)n1 (centres unmarked) [Compound 1345, N-[(6-amino-2-pyridyl)sulfonyl]-6-[6-(diethylamino)-2-pyridyl]-2-(2,2,4-trimethylpyrrolidin-1-yl)pyridine-3-carboxamide] | +++ (“+++” means <3 uM)
COc1ncccc1S(=O)(=O)NC(=O)c1cc2c(nc1Oc1ccc(C)cc1C)C(C)(C)CCC2 [Compound 1347, 2-(2,4-dimethylphenoxy)-N-[(2-methoxy-3-pyridyl)sulfonyl]-8,8-dimethyl-6,7-dihydro-5H-quinoline-3-carboxamide] | +++ (“+++” means <3 uM)
